Five compounds from DBAASP can be followed below.

Values after ≈ are worked out from the molar mass of the structure shown.

Holding throughout (test): ≥ marks a high value that may be exact or a test limit, other limits are often not marked, values filed in µg/mL are converted to µM
Test [1] concerns Neisseria gonorrhoeae F62.
The test system of test [2] is Neisseria gonorrhoeae FA19.
In test [3] the test system is Bacillus subtilis KCTC 3038.
Test [4] has as its system Candida albicans ATCC 10231.
The subject of test [5] is Cryptococcus neoformans ATCC 34881.
In test [6] the test system is Enterococcus faecalis ATCC 29212.
Test [7] concerns Escherichia coli ATCC 27325.
The subject of test [8] is Micrococcus luteus ATCC 10240.
Test [9] relates to Pseudomonas aeruginosa ATCC 27853.
Test [10] has as its system Saccharomyces cerevisiae ATCC 44774.
Test [11] deals with Salmonella typhimurium KCTC 2370.
Test [12] has as its system Staphylococcus aureus ATCC 15752.
Test [13] deals with Acinetobacter baumannii ATCC 19606.
Test [14] relates to Acinetobacter baumannii ATCC BAA-1605.
Test [15] relates to Acinetobacter baumannii ATCC BAA-747.
Test [16] has as its system Acinetobacter baumannii NR-17777.
For test [17], the system named is Acinetobacter baumannii NR-17784.
The subject of test [18] is Acinetobacter baumannii NR-9667.
Test [19] has as its system Pseudomonas aeruginosa 1017.
Test [20] deals with Pseudomonas aeruginosa 1109.
Test [21] has as its system Pseudomonas aeruginosa 1133.
The subject of test [22] is Pseudomonas aeruginosa ATCC 10145.
For test [23], the system named is Pseudomonas aeruginosa ATCC 15442.
Test [24] relates to Pseudomonas aeruginosa ATCC 25619.
Test [25] has as its system Pseudomonas aeruginosa ATCC 35032.
Test [26] has as its system Pseudomonas aeruginosa ATCC 9027.
Test [27] concerns Pseudomonas aeruginosa ATCC 9721.
The subject of test [28] is Pseudomonas aeruginosa ATCC BAA-1744.
In test [29] the test system is Staphylococcus aureus ATCC 43300.
Test [30] has as its system Staphylococcus aureus ATCC 6538.
Test [31] has as its system Staphylococcus aureus ATCC BAA-44.
Test [32] has as its system Staphylococcus aureus NRS 19.
Test [33] relates to Staphylococcus aureus NRS 1.
For test [34], the system named is Staphylococcus aureus NRS 72.
Test [35] deals with Staphylococcus aureus NRS 77.
Test [36] relates to Staphylococcus aureus RN4220.
Test [37] concerns Staphylococcus aureus USA 100.
In test [38] the test system is Staphylococcus aureus USA 200.
Test [39] has as its system Staphylococcus aureus USA 300.
The test system of test [40] is Staphylococcus aureus VRSA1.
The subject of test [41] is Staphylococcus aureus VRSA2.
For test [42], the system named is Staphylococcus epidermidis NRS 101.
The subject of test [43] is Staphylococcus aureus BCRC 10780.
The test system of test [44] is Staphylococcus sp. BCRC 10451.
Test [45] has as its system Vibrio alginolyticus.
The subject of test [46] is Vibrio harveyi BCRC 13812.
For test [47], the system named is Erwinia amylovora PMV 6076.
For test [48], the system named is Pseudomonas syringae pv. actinidiae Psa3700.1.1.
Test [49] relates to Pseudomonas syringae pv. syringae EPS 94.
Test [50] deals with Xanthomonas arboricola pv. pruni CFBP 5563.
For test [51], the system named is Xanthomonas campestris pv. Vesicatoria 2133-2.
In test [52] the test system is Xanthomonas fragariae Xf349-9A.

The MIC is the least concentration at which growth counts as inhibited. For the compound `CC(C)[C@H](NC(=O)[C@@H]1CSSC[C@H](N)C(=O)N[C@@H](Cc2ccc(O)cc2)C(=O)N[C@H]2CSSC[C@H](NC(=O)[C@H](Cc3ccccc3)NC(=O)[C@H](CCCNC(=N)N)NC(=O)[C@H](CCCNC(=N)N)NC(=O)[C@H](CCCNC(=N)N)NC2=O)C(=O)N[C@@H](C(C)C)C(=O)N1)C(=O)NCC(=O)N[C@@H](CCCNC(=N)N)C(N)=O` [CYCRRRFCVCVGR], the figures for the MIC in [1] and in test [2] were 2.7 µM (≈ 4.36 µg/mL) and 6.56 µM (≈ 10.6 µg/mL), respectively.
Regarding `CC(C)[C@H](NC(=O)CNC(=O)[C@H](CCC(N)=O)NC(=O)[C@@H](NC(=O)[C@@H](NC(=O)[C@@H]1CCCN1C(=O)[C@H](CCCN=C(N)N)NC(=O)[C@@H](NC(=O)[C@@H](NC(=O)[C@@H](N)CCCN=C(N)N)C(C)C)C(C)C)C(C)C)C(C)C)C(=O)N[C@@H](CCCCN)C(=O)N[C@@H](CCC(=O)O)C(=O)N[C@@H](CCCCN)C(=O)N[C@H](C(=O)N[C@@H](CCCN=C(N)N)C(=O)O)C(C)C` [RVVRPVVQGVKEKVR], the minimal inhibitory concentration (MIC) in test [3] was no less than 36.6 µM; in test [4], greater than 36.6 µM; in test [5], no less than 36.6 µM; in [6], greater than 36.6 µM; in test [7] it was no less than 36.6 µM; in [8], no less than 36.6 µM. The MIC in test [9] is greater than 36.6 µM; in test [10] it was no less than 36.6 µM; in [11], no less than 36.6 µM; in test [12], no less than 36.6 µM.
Consider `CC[C@H](C)[C@H](NC(=O)[C@H](CCCN=C(N)N)NC(=O)[C@H](CCCN=C(N)N)NC(=O)[C@H](CC(C)C)NC(=O)[C@@H](N)Cc1c[nH]c2ccccc12)C(=O)N[C@@H](CCCCN)C(=O)N[C@@H](C)C(=O)N[C@@H](Cc1c[nH]c2ccccc12)C(=O)N[C@@H](CC(C)C)C(=O)N[C@@H](CCCN=C(N)N)C(=O)N[C@@H](CCCN=C(N)N)C(=O)O` [WLRRIKAWLRR], for which the MIC in [13] was 16 µM (≈ 24.9 µg/mL); in test [14], no less than 32 µM; in test [15] it was no less than 64 µM; in test [16], 16 µM (≈ 24.9 µg/mL); in test [17] it was no less than 64 µM; in [18] it was no less than 32 µM. The minimum inhibitory concentration (MIC) in [19] is no less than 128 µM; in test [20] it was no less than 128 µM; in test [21], no less than 64 µM; in [22], no less than 128 µM; in test [23] it was no less than 128 µM; in [24], no less than 64 µM. In addition, the MIC was 64 µM (≈ 99.5 µg/mL) in [9]; no less than 64 µM in test [25]; 64 µM (≈ 99.5 µg/mL) in [26]; no less than 64 µM in [27]; no less than 128 µM in test [28]; 16 µM (≈ 24.9 µg/mL) in test [29]. In addition, the minimal inhibitory concentration (MIC) in [30] is 16 µM (≈ 24.9 µg/mL); in test [31] it was 16 µM (≈ 24.9 µg/mL); in test [32], 8 µM (≈ 12.4 µg/mL); in [33] it was 16 µM (≈ 24.9 µg/mL); in test [34], no less than 32 µM; in test [35] it was 16 µM (≈ 24.9 µg/mL). The MIC in test [36] is 8 µM (≈ 12.4 µg/mL); in [37], 16 µM (≈ 24.9 µg/mL); in test [38] it was 8 µM (≈ 12.4 µg/mL); in test [39], 16 µM (≈ 24.9 µg/mL); in test [40], no less than 32 µM; in test [41], 16 µM (≈ 24.9 µg/mL). The same compound gave a minimal inhibitory concentration (MIC) in test [42] of 8 µM (≈ 12.4 µg/mL).
On to `CC[C@H](C)[C@H](NC(=O)[C@H](Cc1ccccc1)NC(C)=O)C(=O)N[C@@H](Cc1ccccc1)C(=O)N[C@@H](Cc1cnc[nH]1)C(=O)N[C@H](C(=O)N[C@H](C(=O)N[C@@H](CCCCN)C(=O)NCC(=O)N[C@@H](CC(C)C)C(=O)N[C@@H](Cc1ccccc1)C(=O)N[C@@H](Cc1cnc[nH]1)C(=O)N[C@@H](C)C(N)=O)[C@@H](C)CC)[C@@H](C)CC` [FIFHIIKGLFHA], for which the minimal inhibitory concentration (MIC) in test [43] came out at 4.33 µM (≈ 6.43 µg/mL); in test [44] it was 8.66 µM (≈ 12.9 µg/mL); in [45] it was 17.3 µM (≈ 25.7 µg/mL); in test [46] it was 4.33 µM (≈ 6.43 µg/mL).
Consider `CC[C@H](C)[C@H](NC(=O)[C@H](CCC(=O)O)NC(=O)[C@H](CC(N)=O)NC(=O)[C@H](CC(C)C)NC(=O)[C@H](C)NC(=O)[C@H](CCCCN)NC(=O)[C@@H](N)CCC(N)=O)C(=O)N[C@@H](CC(N)=O)C(=O)N[C@@H](CCC(N)=O)C(=O)N[C@@H](Cc1ccccc1)C(N)=O` [QKALNEINQF], for which the MIC in [47], in test [48], in test [49], in [50], in [51] and in [52] was no less than 50 µM in each case.
